Laboratory results published in ChEMBL document CHEMBL3525924, “Cytochrome P450 3A-mediated microsomal biotransformation of 1α,25-dihydroxyvitamin D3 in mouse and human liver: drug-related induction and inhibition of catabolism” (Drug Metab Dispos, 2012).

Legend:
Assay type in all cases: ADME
Details in all cases: 0.5 h
[1] = Drug metabolism in prednisone treated CD1 mouse liver microsomes treated with 20 uM of 1alpha,25(OH)2D3 assessed as metabolite formation after 30 mins by LC/MS analysis in presence of NADPH
Liver microsome [2] = assay: Drug level in human liver microsomes assessed as retention time treated with 20 uM of 1alpha,25(OH)2D3 after 30 mins by LC/MS analysis in presence of NADPH
[3] = Drug metabolism in prednisone treated CD1 mouse liver microsomes assessed as metabolite formation at 20 uM after 30 mins by LC/MS analysis in presence of NADPH and CYP2E inhibitor di-ethyldithiocarbamate
[4] = Drug metabolism in dexamethasone treated CD1 mouse liver microsomes assessed as metabolite formation at 20 uM after 30 mins by LC/MS analysis in presence of NADPH and CYP2E inhibitor di-ethyldithiocarbamate
[5] = Drug metabolism in CD1 mouse liver microsomes assessed as metabolite formation at 20 uM after 30 mins by LC/MS analysis in presence of NADPH and CYP2E inhibitor di-ethyldithiocarbamate
[6] = Drug metabolism in prednisone treated CD1 mouse liver microsomes assessed as metabolite formation at 20 uM after 30 mins by LC/MS analysis in presence of NADPH and CYP2A inhibitor 8-methoxypsoralen
[7] = Drug metabolism in dexamethasone treated CD1 mouse liver microsomes assessed as metabolite formation at 20 uM after 30 mins by LC/MS analysis in presence of NADPH and CYP2A inhibitor 8-methoxypsoralen
[8] = Drug metabolism in CD1 mouse liver microsomes assessed as metabolite formation at 20 uM after 30 mins by LC/MS analysis in presence of NADPH and CYP2A inhibitor 8-methoxypsoralen
[9] = Drug metabolism in prednisone treated CD1 mouse liver microsomes assessed as metabolite formation at 20 uM after 30 mins by LC/MS analysis in presence of NADPH and CYP2B inhibitor orphenadrine
[10] = Drug metabolism in dexamethasone treated CD1 mouse liver microsomes assessed as metabolite formation at 20 uM after 30 mins by LC/MS analysis in presence of NADPH and CYP2B inhibitor orphenadrine
[11] = Drug metabolism in CD1 mouse liver microsomes assessed as metabolite formation at 20 uM after 30 mins by LC/MS analysis in presence of NADPH and CYP2B inhibitor orphenadrine
Liver microsome [12] = assay: Drug metabolism in human liver microsomes assessed as IC50 for ritonavir-mediated inhibition of metabolite formation at 20 uM after 30 mins by LC/MS analysis
Liver microsome [13] = assay: Drug metabolism in human liver microsomes assessed as IC50 for ketoconazole-mediated inhibition of metabolite formation at 20 uM after 30 mins by LC/MS analysis
Liver microsome [14] = assay: Drug metabolism in human liver microsomes assessed as IC50 for clarithromycin-mediated inhibition of metabolite formation at 20 uM after 30 mins by LC/MS analysis
Liver microsome [15] = assay: Drug metabolism in human liver microsomes assessed as IC50 for tamoxifen-mediated inhibition of metabolite formation at 20 uM after 30 mins by LC/MS analysis
Liver microsome [16] = assay: Drug metabolism in human liver microsomes assessed as IC50 for docetaxel-mediated inhibition of metabolite formation at 20 uM after 30 mins by LC/MS analysis
[17] = Drug level in dexamethasone treated CD1 mouse liver microsomes treated with 20 uM of 1alpha,25(OH)2D3 after 30 mins by LC/MS analysis in presence of NADPH relative to vehicle treated mouse
[18] = Drug metabolism in prednisone treated CD1 mouse liver microsomes assessed as metabolite formation at 20 uM after 30 mins by LC/MS analysis in presence of NADPH and CYP1A2 inhibitor furafyline
[19] = Drug metabolism in dexamethasone treated CD1 mouse liver microsomes assessed as metabolite formation at 20 uM after 30 mins by LC/MS analysis in presence of NADPH and CYP1A2 inhibitor furafyline
[20] = Drug metabolism in CD1 mouse liver microsomes assessed as metabolite formation at 20 uM after 30 mins by LC/MS analysis in presence of NADPH and CYP1A2 inhibitor furafyline
[21] = Drug metabolism in prednisone treated CD1 mouse liver microsomes assessed as metabolite formation at 20 uM after 30 mins by LC/MS analysis in presence of NADPH and CYP1A1 inhibitor alpha-naphthoflavone
[22] = Drug metabolism in dexamethasone treated CD1 mouse liver microsomes assessed as metabolite formation at 20 uM after 30 mins by LC/MS analysis in presence of NADPH and CYP1A1 inhibitor alpha-naphthoflavone
[23] = Drug metabolism in CD1 mouse liver microsomes assessed as metabolite formation at 20 uM after 30 mins by LC/MS analysis in presence of NADPH and CYP1A1 inhibitor alpha-naphthoflavone
[24] = Drug metabolism in prednisone treated CD1 mouse liver microsomes assessed as metabolite formation at 20 uM after 30 mins by LC/MS analysis in presence of NADPH and CYP2C inhibitor sulfaphenazole
[25] = Drug metabolism in dexamethasone treated CD1 mouse liver microsomes assessed as metabolite formation at 20 uM after 30 mins by LC/MS analysis in presence of NADPH and CYP2C inhibitor sulfaphenazole
[26] = Drug metabolism in CD1 mouse liver microsomes assessed as metabolite formation at 20 uM after 30 mins by LC/MS analysis in presence of NADPH and CYP2C inhibitor sulfaphenazole
[27] = Drug metabolism in prednisone treated CD1 mouse liver microsomes assessed as metabolite formation at 20 uM after 30 mins by LC/MS analysis in presence of NADPH and CYP2D inhibitor quinine
[28] = Drug metabolism in dexamethasone treated CD1 mouse liver microsomes assessed as metabolite formation at 20 uM after 30 mins by LC/MS analysis in presence of NADPH and CYP2D inhibitor quinine
[29] = Drug metabolism in CD1 mouse liver microsomes assessed as metabolite formation at 20 uM after 30 mins by LC/MS analysis in presence of NADPH and CYP2D inhibitor quinine

Row | Compound | Drug metabolism [1] | Retention_time (Liver microsome [2]) | Drug metabolism [3] | Drug metabolism [4] | Drug metabolism [5] | Drug metabolism [6] | Drug metabolism [7] | Drug metabolism [8] | Drug metabolism [9] | Drug metabolism [10] | Drug metabolism [11] | IC50 (Liver microsome [12]) | IC50 (Liver microsome [13]) | IC50 (Liver microsome [14]) | IC50 (Liver microsome [15]) | IC50 (Liver microsome [16]) | Drug metabolism [18] | Drug metabolism [19] | Drug metabolism [20] | Drug metabolism [21] | further results
1 | C=C1/C(=C\C=C2/CCC[C@]3(C)[C@@H]([C@H](C)CC[C@@H](O)C(C)(C)O)CC[C@@H]23)C[C@@H](O)C[C@@H]1O | metabolite_detected | 8.8 min | metabolite_detected | metabolite_detected | metabolite_detected | metabolite_detected | metabolite_detected | metabolite_detected | metabolite_detected | metabolite_detected | metabolite_detected | 28 nM | 42 nM | > 30 µM | > 40 µM | 77 nM | metabolite_detected | metabolite_detected | metabolite_detected | metabolite_detected | fold change (FC) [17]: 17; Drug metabolism [22]: metabolite_detected; Drug metabolism [23]: metabolite_detected; Drug metabolism [24]: metabolite_detected; Drug metabolism [25]: metabolite_detected; Drug metabolism [26]: metabolite_detected; Drug metabolism [27]: metabolite_detected; Drug metabolism [28]: metabolite_detected; Drug metabolism [29]: metabolite_detected
2 | C=C1/C(=C\C=C2/CCC[C@]3(C)[C@@H]([C@H](C)C[C@@H](O)CC(C)(C)O)CC[C@@H]23)C[C@@H](O)C[C@@H]1O | metabolite_detected | 9.7 min | metabolite_detected | metabolite_detected | metabolite_detected | metabolite_detected | metabolite_detected | metabolite_detected | metabolite_detected | metabolite_detected | metabolite_detected | 16 nM | 32 nM | > 30 µM | > 40 µM | 38 nM | metabolite_detected | metabolite_detected | metabolite_detected | metabolite_detected | Drug metabolism [17]: metabolite_detected; Drug metabolism [22]: metabolite_detected; Drug metabolism [23]: metabolite_detected; Drug metabolism [24]: metabolite_detected; Drug metabolism [25]: metabolite_detected; Drug metabolism [26]: metabolite_detected; Drug metabolism [27]: metabolite_detected; Drug metabolism [28]: metabolite_detected; Drug metabolism [29]: metabolite_detected
3 | C=C1/C(=C\C=C2/CCC[C@]3(C)[C@@H]([C@H](C)C[C@H](O)CC(C)(C)O)CC[C@@H]23)C[C@@H](O)C[C@@H]1O | metabolite_detected | 8.5 min | metabolite_detected | metabolite_detected | metabolite_detected | metabolite_detected | metabolite_detected | metabolite_detected | metabolite_detected | metabolite_detected | metabolite_detected | 13 nM | 40 nM | > 30 µM | > 40 µM | 38 nM | metabolite_detected | metabolite_detected | metabolite_detected | metabolite_detected | fold change (FC) [17]: 43; Drug metabolism [22]: metabolite_detected; Drug metabolism [23]: metabolite_detected; Drug metabolism [24]: metabolite_detected; Drug metabolism [25]: metabolite_detected; Drug metabolism [26]: metabolite_detected; Drug metabolism [27]: metabolite_detected; Drug metabolism [28]: metabolite_detected; Drug metabolism [29]: metabolite_detected
